Assay results as given in patent US11786555B2, “RAR selective agonists in combination with immune modulators for cancer immunotherapy” (IO THERAPEUTICS, INC., priority 2017, dated 2023).

Legend:
[1] = system: relapse/refractory patients; conditions: in combination with BTZ; cited from earlier work
[2] = system: H929 cells and CD138+ primary MM cells; assay: qRT-PCR of B cell and PC markers in MM cells, liquid or BM stroma co-culture; type: cell-based, human; conditions: absence of stroma (Liquid), 1 μM for 5 days
Protocol: FIG. 3A-H depicts the relative concentration of plasma markers BCL6 (FIG. 3A and E), BLIMP-1 (FIG. 3B and F), XBPS-1 (FIG. 3C and G), and CHOP (FIG. 3D and H) in multiple myeloma (MM) cell lines H929 (FIG. 3A-D) or CD138+ MM cells from three different patient samples (FIG. 3E-H) incubated for 5 days either in the absence of stroma (Liquid), with or without AGN (RA receptor antagonist AGN194310, 1 μM), or co-cultured with BM mesenchymal cells (Stroma), with or without R115 (CYP26 inhibitor R115866, 1 μM) or IRX (CYP26-resistant retinoid IRX5183, 1 μM). Expression in untreated liquid conditions was set at 1. Data are representative of 3 independent experiments with similar results and represent the mean ±SEM. *P≤0.05 and **P≤0.01, by repeated-measures 1-way ANOVA for determination of statistical significance between groups; P values were corrected for multiple comparisons using Dunnett's test. Ctrl, control; max, maximum.
(§1) Coculture experiments. 24-well plates were coated with 0.1% gelatin in PBS for 30 min at 37° C. The gelatin solution was removed, and the stromal cells were cultured overnight at a density of 5×10^4 cells/well to obtain a confluent monolayer. At that time, MM cell lines or primary MM cells (1×10^5 in 2 ml) were added to the stroma cultures. The stroma cocultures were incubated at 37° C. in RPMI containing 10% FCS, L-glutamine, and P/S, with or without AGN194310 (1 μM for 5 days), R115866 (1 μM for 5 days), IRX5183 (1 μM for 5 days), or BTZ (2.5 nM for 48 hr).
(§2) qRT-PCR. Total RNA was extracted using the RNeasy Mini Kit (QIAGEN) according to the manufacturer's instructions. cDNA was synthesized by reverse transcription using the iScript cDNA Synthesis Kit (Bio-Rad). qRT-PCR was performed with iTaq SYBR Green Supermix (Bio-Rad) using sequence specific primers. Gene expression was normalized to GAPDH, and relative quantification was calculated using ΔΔCt. All experiments were performed in duplicate and run on the Bio-Rad CFX96 machine.
The BM microenvironment (also called “niche”) limits PC differentiation by modulating retinoid signaling. A population of MM progenitors, phenotypically similar to B cells, is intrinsically resistant to BTZ and contributes to MRD and relapse. To investigate whether the BM niche plays a role in determining the phenotype of MM cells, the mRNA expression of B cell and PC markers in MM H929 cell lines (FIG. 3A-D) and MM CD138+ primary cells (FIG. 3E-H) was analyzed following co-culture with mouse BM stroma using human-specific primers. […] In contrast, co-culture of MM cells with BM stroma decreased the mRNA expression of B lymphocyte-induced maturation protein 1 (BLIMP1) and spliced X box-binding protein 1 (XBP1s) (FIG. 3B, C, F, G), which are critical mediators of PC differentiation.
The BM niche regulates hematopoietic stem cell (HSC) differentiation by expressing the retinoid-inactivating enzyme CYP26. CYP26 enzymes were highly expressed in BM mesenchymal cells, while their expression was barely detectable in MM cells. Since retinoid signaling promotes PC differentiation and potentiates Ig secretion, it was determined whether stromal CYP26 is responsible for inducing a B cell phenotype in MM cells. To this end, co-culture conditions were treated with the CYP26 inhibitor R115866 (R115) or the CYP26-resistant RA receptor α-selective (RARα-selective) retinoid IRX5183 (IRX).

MM cells = assay: surface CD138 expression of MM cells by flow cytometry; type: cell-based, human; conditions: absence of stroma, 1 μM
Protocol: as §1
Flow cytometry. Following treatment, MM cells were collected, washed with PBS, and stained for 15 min at room temperature with phycoerythrin-conjugated (PE-conjugated) anti-CD138. Cells were washed to remove unbound antibody and evaluated in a FACSCalibur system (BD Biosciences). Stromal cells were identified by GFP expression, and viable cells were identified using 7-aminoactinomycin D (7-AAD). To calculate cell numbers, live GFP-cells were normalized to calibration beads.
Expression of CD138 is a hallmark of normal PC differentiation as well MM PCs.

[3] = system: H929 cells and primary CD138+ MM cells; assay: clonogenic or cellular recovery of MM cells after BTZ treatment; type: cell-based, human; conditions: absence of stroma, 1 μM for 5 days, then BTZ 2.5 nM
Protocol: FIG. 4A-B depicts the clonogenic recovery (CFU) of H929 cells (FIG. 4A) or cellular recovery of primary CD138+ MM cells from 3 different patient samples (FIG. 4B). MM cells were treated with bortezomib (BTZ; 2.5 nM) for 48 hours after being incubated for 5 days either in the absence of stroma (Liquid), with or without the pan-RAR inhibitor AGN (1 μM), or in the presence of BM mesenchymal cells (Stroma), with or without the CYP26 inhibitor R115 (1 μM) or the CYP26-resistant retinoid IRX (1 μM). Clonogenic or cellular recovery was normalized to each condition in the absence of BTZ.
as §1
Clonogenic assays. After treatment, MM cells were collected, washed with PBS, and plated at a density of 5,000 cells/ml in 1 ml of 1.32% methylcellulose supplemented with 30% FBS, 10% BSA, L-glutamine, P/S, and 0.1 mM β-ME. Cells were plated in triplicate in 35-mm culture dishes, incubated at 37° C., and scored for the presence of colonies 14 days later.
A RA-low microenvironment induces BTZ resistance. To determine whether decreased retinoid signaling contributes to BTZ resistance within the BM niche, MM cell lines and MM CD138+ primary cells were incubated with BM stroma for 5 days, followed by BTZ treatment.

BM stromal cells = assay: stromal Cyp26a1 upregulation by MM cells in coculture; type: cell-based, mouse; conditions: coculture with MM cells
Protocol: as §2
To confirm the role of paracrine Hedgehog on this interaction, smoothened (Smo), a membrane receptor that transduces SHH signaling, was knocked out at the genomic level in the mesenchymal compartment. For this, BM mesenchymal cells derived from Smo^fl/fl mice were transduced with a retroviral vector encoding Cre recombinase (Smo-KO stroma). Mouse Smo^fl/fl stromal cells transduced with an empty retroviral vector were used as a control (WT stroma). The transduced BM stromal cells were cocultured with MM cells for 24 hr.

Kasumi-1 cells = assay: CFU experiments, off and on stroma; type: cell-based; conditions: 10^−6 M ATRA, IRX5183, or 10^−7 M AM80
Source text: (§3) Data across three independent experiments.

NB4 cells = assay: CFU experiments, off and on stroma; type: cell-based; conditions: 10^−7 M ATRA, IRX5183, or 10^−8 M AM80
Source text: as §3

OCI-AML3 cells = assay: CFU experiments, off and on stroma; type: cell-based; conditions: 10^−6 M ATRA, IRX5183, or 10^−7 M AM80
Source text: as §3

[4] = system: FLT3/ITD acute myeloid leukemia (AML) cells; conditions: cited from earlier work

Structure (SMILES): c1cc(CN2CCCNCCNCCCNCC2)ccc1CN1CCCNCCNCCCNCC1 [plerixafor]
- response rates [1]: improved response rates

Structure (SMILES): CCc1ccc(C2=CC(C)(C)Sc3ccc(C#Cc4ccc(C(=O)O)cc4)cc32)cc1 [AGN194310]
- mRNA expression of B cell and PC markers (BCL6, BLIMP1, XBP1s, CHOP) [2]: mimicked the changes induced by BM stromal cells
- surface CD138 expression (MM cells): markedly decreased
- effect on BTZ sensitivity [3]: decreasing BTZ sensitivity

Structure (SMILES): CC1=C2C[C@H]3[C@@H](CC=C4C[C@@H](O)CC[C@@]43C)[C@@H]2CC[C@]12O[C@@H]1C[C@H](C)CN[C@H]1[C@H]2C [cyclopamine]
- stromal Cyp26a1 upregulation by MM cells (BM stromal cells): partially overcame stromal Cyp26a1 upregulation by MM cells

Structure (SMILES): CC1(C)CCC(C)(C)c2cc(NC(=O)c3ccc(C(=O)O)cc3)ccc21 [AM80, 4-[(5,6,7,8-tetrahydro-5,5,8,8-tetramethyl-2-naphthalenyl)carbamoyl]benzoic acid]
- clonogenic growth (CFU), differentiation and elimination of AML (Kasumi-1 cells): decrease in clonogenic growth compared to control
- clonogenic growth (CFU), differentiation and elimination of AML (NB4 cells): decrease in clonogenic growth compared to control
- clonogenic growth (CFU), differentiation and elimination of AML (OCI-AML3 cells): decrease in clonogenic growth compared to control
- differentiation and sensitivity to FLT3 inhibitors [4]: differentiates FMS-like tyrosine kinase 3/internal tandem duplication (FLT3/ITD) acute myeloid leukemia (AML) cells and increase their sensitivity to FLT3 inhibitors
